Assay results from patent US8927726B2, “N-cyclopropyl-N-piperidinyl-amide derivatives, pharmaceutical compositions containing them and uses thereof” (Boehringer Ingelheim International GmbH, priority 2012, dated 2015).

Assays:
[1] = molecular target: T1, mutant form of the human GPR119 receptor (Homo sapiens, UniProt Q8TDV5, S329A/T327A); assay: LANCE cAMP-384 assay in HEK293 cells stably expressing mutant human GPR119; format: cell-based; conditions: mutant human GPR119 (SEQ ID No. 1), 20 min at 37 C
T1 construct: X1, the printed 24-residue N-terminal leader ([…]) that replaces Met1; (N); expressed in transfected cells
T1 sequence (Q8TDV5 2-335 T327A/S329A): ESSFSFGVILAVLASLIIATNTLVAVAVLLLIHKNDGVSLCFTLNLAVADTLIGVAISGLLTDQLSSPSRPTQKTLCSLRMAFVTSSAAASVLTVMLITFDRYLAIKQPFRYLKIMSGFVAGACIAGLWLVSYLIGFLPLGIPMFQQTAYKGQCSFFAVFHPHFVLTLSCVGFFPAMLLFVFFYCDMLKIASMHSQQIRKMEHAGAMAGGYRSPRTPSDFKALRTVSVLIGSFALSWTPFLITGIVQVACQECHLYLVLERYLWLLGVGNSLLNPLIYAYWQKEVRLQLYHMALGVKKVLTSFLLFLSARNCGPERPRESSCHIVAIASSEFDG
Method: Quantitative detection of cAMP accumulation from cells expressing human GPR119 receptor is achieved using Perkin Elmer's LANCE cAMP-384 Kit (Cat #AD0264) according to the manufacturer's protocol. Briefly, HEK293 cells stably expressing a mutant form of the human GPR119 receptor as assay tool (Methionine 1 replaced with the amino acid sequence […], and T327 & S329 changed to alanines; SEQ ID No. 1) are grown to 50-70% confluency in cell culture media (DMEM, 10% heat inactivated Fetal Bovine Serum, 50 I.U./mL penicillin, 50 μg/mL streptomycin, 10 mM HEPES, 20 μg/mL G418 Sulfate). On the day of the assay, GPR119 stable HEK293 cells are lifted from the tissue culture plate and 1000 cells/well are incubated along with various concentrations of test compounds for 20 min at 37+ C. Detection Buffer (50mM HEPES, 10mM calcium chloride, 0.35% Triton X-100, 1 mg/mL BSA) containing cAMP-specific antibody is then added to all wells and allowed to equilibrate in the dark for 10 minutes at room temperature. Upon equilibration, Detection Buffer containing europium-labeled cAMP tracer complex is added to all wells and allowed to react for 1 hour at room temperature. After 1 hour, bound europium-labeled cAMP tracer is measured using a Perkin Elmer Envision plate reader. The quantity of cAMP generated in each well is derived from a standard curve. EC50 is determined using nonlinear regression analysis of the cAMP values over a range of agonist concentration (12 points spanning the range from 30 μM to 100 pM).

human GPR119 = molecular target: T2, human GPR119 (Homo sapiens, UniProt Q8TDV5); assay: AlphaScreen cAMP assay in MIN6 cells stably transfected with human GPR119; format: cell-based; conditions: Min-6/hGPR119 cells, 45 minutes incubation at room temperature
T2 construct: expressed in transfected cells; host or cells: MIN6 (mouse insulinoma) cells, stably transfected
T2 sequence (Q8TDV5 1-335): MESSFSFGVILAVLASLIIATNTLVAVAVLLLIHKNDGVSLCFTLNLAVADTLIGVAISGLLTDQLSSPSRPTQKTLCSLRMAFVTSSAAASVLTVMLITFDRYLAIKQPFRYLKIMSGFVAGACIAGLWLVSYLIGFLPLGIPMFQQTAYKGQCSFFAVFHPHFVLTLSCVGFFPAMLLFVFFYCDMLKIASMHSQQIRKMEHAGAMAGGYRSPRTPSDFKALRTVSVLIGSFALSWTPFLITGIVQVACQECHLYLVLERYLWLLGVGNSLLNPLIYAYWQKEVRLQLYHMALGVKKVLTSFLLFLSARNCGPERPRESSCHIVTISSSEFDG
Method: The compounds of formula I according to the invention modulate the activity of the G-protein-coupled receptor GPR119. The effect of the compounds on the activation of GPR119 and on the stimulation of intracellular cAMP concentration is determined using the AlphaScreen cAMP Assay Kit (Cat. No. #6760625R) made by PerkinElmer.
MIN6 cells [Miyazaki Jet al. Endocrinology. 1990 July; 127(1):126-32] are stably transfected with an expression vector for human GPR119 cDNA (Acc. No. NP_848566). Min-6 / hGPR119 cells are cultured in DMEM, 10% FBS, 50 μM β-mercaptoethanol, 0.3 mg/mL Geniticin, 2 mM GlutaMAX at 37° C. 5% CO2. For the assay, the cells are seeded in Optiplates (white, 384-well, 160W-barcoded, TC, sterile with lid, Cat. No. #6007688 (Perkin Elmer); 10000 cells/well; 50 μl). The plates covered with lids are then incubated for 24 hours at 37° C./5% CO2. After the medium is aspirated from the wells completely, 10 μl of the test compound are added, the compounds are diluted using stimulating buffer (140 mM NaCl, 3.6 mM KCl, 0.5 mM NaH2PO4, 0.5 mM MgSO4, 1.5 mM CaCl2, 10 mM Hepes, 5 mM NaHCO3; pH 7.4. 0.5 mM IBMX and 0.1% BSA, the final DMSO concentration is 1%). After 45 minutes incubation at room temperature (approx. 20° C.), the cAMP concentrations are determined using the AlphaScreen cAMP Assay Kit (Cat.No.# 6760625R from PerkinElmer).

O=C(c1ccc(-n2cncn2)c(F)c1)N(C1CC1)[C@@H]1CCN(CC2(C(F)(F)F)CC2)C[C@@H]1F (single isomer, unassigned) [Example 11]
EC50 [1]: 10 nM

Cc1nnnn1-c1ccc(C(=O)N(C2CC2)[C@@H]2CCN(CC3(C(F)(F)F)CC3)C[C@@H]2F)cn1 (single isomer, unassigned) [Example 12]
EC50 [1]: 12 nM

O=C(c1cnc(-n2cncn2)cn1)N(C1CC1)[C@@H]1CCN(CC2(C(F)(F)F)CC2)C[C@@H]1F (single isomer, unassigned) [Example 13]
EC50 (human GPR119): 2 nM

Cc1nccn1-c1ncc(C(=O)N(C2CC2)[C@@H]2CCN(CC3(C(F)(F)F)CC3)C[C@@H]2F)cn1 (single isomer, unassigned) [Example 14]
EC50 [1]: 27 nM

Cc1ncn(-c2cnc(C(=O)N(C3CC3)[C@@H]3CCN(CC4(C(F)(F)F)CC4)C[C@@H]3F)cn2)n1 (single isomer, unassigned) [Example 15]
EC50 [1]: 30 nM

CC(C)(F)CN1CCC(N(C(=O)c2ccc(-c3cnco3)cc2)C2CC2)CC1 [Example 1, N-Cyclopropyl-N-[1-(2-fluoro-2-methyl-propyl)-piperidin-4-yl]-4-oxazol-5-yl-benzamide]
EC50 (human GPR119): 456 nM

O=C(c1ccc(-c2cnco2)cc1)N(C1CC1)C1CCN(CCC(F)(F)F)CC1 [Example 2, N-Cyclopropyl-4-oxazol-5-yl-N-[1-(3,3,3-trifluoro-propyl)-piperidin-4-yl]-benzamide]
EC50 (human GPR119): 643 nM

O=C(c1ccc(-c2cnco2)cc1)N(C1CC1)C1CCN(CC2(C(F)(F)F)CC2)CC1 [Example 3, N-Cyclopropyl-4-oxazol-5-yl-N-[1-(1-trifluoromethyl-cyclopropylmethyl)-piperidin-4-yl]-benzamide]
EC50 (human GPR119): 79 nM

CC(C)(F)CN1CCC(N(C(=O)c2ccc(-c3cnco3)c(F)c2)C2CC2)CC1 [Example 4, N-Cyclopropyl-3-fluoro-N[1-(2-fluoro-2-methyl-propyl)-piperidin-4-yl]-4-oxazol-5-yl-benzamide]
EC50 (human GPR119): 63 nM

N#Cc1ccc(-c2cc(C(=O)N(C3CC3)C3CCN(CC4(C(F)(F)F)CC4)CC3)no2)cc1 [Example 5, 5-(4-Cyano-phenyl)-isoxazole-3-carboxylic acid cyclopropyl-[1-(1-trifluoromethyl-cyclopropylmethyl) -piperidin-4-yl]-amide]
EC50 (human GPR119): 27 nM

CC(C)(F)CN1CCC(N(C(=O)c2cc(-c3ccc(C#N)cc3)on2)C2CC2)CC1 [Example 6, 5-(4-Cyano-phenyl)-isoxazole-3-carboxylic acid cyclopropyl-[1-(2-fluoro-2-methyl-propyl) -piperidin-4-yl]-amide]
EC50 (human GPR119): 50 nM

N#Cc1ccc(-c2cc(C(=O)N(C3CC3)C3CCN(CC4(C(F)(F)F)CC4)CC3)on2)c(F)c1 [Example 7, 3-(4-Cyano-2-fluoro-phenyl)-isoxazole-5-carboxylic acid cyclopropyl-[1-(1-trifluoromethyl-cyclopropylmethyl)-piperidin-4-yl]-amide]
EC50 (human GPR119): 9 nM

CC(C)(F)CN1CCC(N(C(=O)c2cc(-c3ccc(C#N)cc3F)no2)C2CC2)CC1 [Example 8, 3-(4-Cyano-2-fluoro-phenyl)-isoxazole-5-carboxylic acid cyclopropyl-[1-(2-fluoro-2-methyl-propyl)-piperidin-4-yl]-amide]
EC50 (human GPR119): 22 nM

N#Cc1ccc(-c2cc(C(=O)N(C3CC3)C3CCN(CC4(C(F)(F)F)CC4)CC3)no2)c(F)c1 [Example 9, 5-(4-Cyano-2-fluoro-phenyl)-isoxazole-3-carboxylic acid cyclopropyl-[1-(1-trifluoromethyl-cyclopropylmethyl)-piperidin-4-yl]-amide]
EC50 (human GPR119): 6 nM

CC(C)(F)CN1CCC(N(C(=O)c2cc(-c3ccc(C#N)cc3F)on2)C2CC2)CC1 [Example 10, 5-(4-Cyano-2-fluoro-phenyl)-isoxazole-3-carboxylic acid cyclopropyl-[1-(2-fluoro-2-methyl-propyl)-piperidin-4-yl]-amide]
EC50 (human GPR119): 19 nM
